Laboratory results taken from PMC9564337, “Development of a Neurotensin-Derived ^68Ga-Labeled PET Ligand with High In Vivo Stability for Imaging of NTS1 Receptor-Expressing Tumors” (Cancers, 2022).
Like-named read-outs stand apart in the source and are kept apart here.

Assays:
[1] = target: T1, hNTS1R (Homo sapiens, UniProt P30989); assay: radioligand competition binding with [3H]UR-MK300 at intact HT-29 cells
T1 construct: intact HT-29 colon carcinoma cells expressing the hNTS1R; host or cells: HT-29 human colon carcinoma cells
T1 sequence (P30989 whole entry): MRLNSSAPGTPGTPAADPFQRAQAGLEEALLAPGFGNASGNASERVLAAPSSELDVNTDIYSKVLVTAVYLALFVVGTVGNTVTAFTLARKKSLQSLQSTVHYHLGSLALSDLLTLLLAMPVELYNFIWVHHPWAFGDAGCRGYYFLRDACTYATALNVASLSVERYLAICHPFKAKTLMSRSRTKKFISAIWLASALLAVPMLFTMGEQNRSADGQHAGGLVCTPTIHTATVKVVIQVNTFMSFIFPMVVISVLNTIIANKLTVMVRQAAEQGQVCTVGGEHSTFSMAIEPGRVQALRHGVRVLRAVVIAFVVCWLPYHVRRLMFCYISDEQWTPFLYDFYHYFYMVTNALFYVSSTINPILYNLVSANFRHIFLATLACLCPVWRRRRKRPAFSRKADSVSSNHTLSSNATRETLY
Description: Specific binding data (obtained by subtracting unspecific binding from total binding) were normalized (100% = specifically bound radioligand in the absence of competitor) and plotted over log(concentration of competitor) followed by a four-parameter logistic fit (SigmaPlot 12.5, Systat Software, San José, CA, USA) (note: in the case of 40, the lower curve plateau of the sigmoidal fit was constrained to >0). […] The Ki values from individual experiments were transformed to pKi values, followed by the calculation of mean pKi values ± SD.

[2] = target: hNTS2R (Homo sapiens, UniProt O95665); assay: radioligand competition binding with [3H]UR-MK300 at intact HEK293T-hNTS2R cells; conditions: [3H]UR-MK300 c = 10 nM
hNTS2R, sequence (O95665 whole entry): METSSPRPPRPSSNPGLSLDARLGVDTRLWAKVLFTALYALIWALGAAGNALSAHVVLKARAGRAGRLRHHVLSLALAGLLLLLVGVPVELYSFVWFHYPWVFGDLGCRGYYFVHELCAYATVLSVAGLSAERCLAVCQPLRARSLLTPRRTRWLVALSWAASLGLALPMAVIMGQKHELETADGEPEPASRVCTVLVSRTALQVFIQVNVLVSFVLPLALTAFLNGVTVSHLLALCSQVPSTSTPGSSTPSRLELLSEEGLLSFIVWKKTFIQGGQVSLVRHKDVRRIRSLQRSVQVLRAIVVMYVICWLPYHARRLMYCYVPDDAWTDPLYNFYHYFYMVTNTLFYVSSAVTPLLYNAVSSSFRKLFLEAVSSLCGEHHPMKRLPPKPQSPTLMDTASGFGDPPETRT
Procedure: Two days prior to the experiment, white 96-well plates with clear bottoms (Costar, catalog no. 3610) were treated with poly-D-lysine hydrobromide (Sigma-Aldrich) for 10 min. The wells were washed with H2O and the plates were dried on air at rt overnight. […] After removal of the glutaraldehyde solution, the wells were washed twelve times with H2O and two times with culture medium (150–300 µL). […] On the day of the experiment, the culture medium was carefully removed using a multi-channel pipette (Transferpette S-12, Brand, Wertheim, Germany) and the cells were washed once with Dulbecco’s phosphate-buffered saline (D-PBS) containing Ca^2+ and Mg^2+ (1.8 mM CaCl2, 2.68 mM KCl, 1.47 mM KH2PO4, 3.98 mM MgSO4, 136.9 mM NaCl and 8.06 mM Na2HPO4) (200 μL, rt) followed by the careful pre-filling of the wells with 180 µL (total binding) or 160 µL (unspecific and competition binding) of D-PBS, supplemented with 1% BSA and 100 μg/mL bacitracin (Serva, Heidelberg, Germany) (in the following referred to as binding buffer). To determine total binding, 20 µL of a solution of the radioligand in binding buffer (10-fold concentrated compared to the final concentration) were added. […] To determine the displacing effect of a compound of interest, 20 µL of a solution of the respective compound in binding buffer (10-fold concentrated) and 20 µL of a 10-fold concentrated solution of the radioligand in binding buffer were added. During the incubation period of 2 h at 23 °C, the plates were gently shaken. […] The plates were sealed with a transparent sealing tape (permanent seal for microplates, PerkinElmer, product no. 1450–461) and turned upside down several times to achieve complete mixing. Prior to the measurement of the radioactivity with a MicroBeta2 plate counter (PerkinElmer), the plates were kept in the dark for at least 1 h. All experiments were performed in triplicate.

[3] = in vitro; format: in vitro ADME; conditions: human; for remaining at 1 h, 100 µM / remaining at 6 h, 100 µM / remaining at 24 h, 100 µM / remaining at 48 h, 100 µM: plasma; for remaining at 1 h, 100 µM: pH 7.4, % Intact Peptide in Plasma after 1 h; for remaining at 6 h, 100 µM: pH 7.4, % Intact Peptide in Plasma after 6 h; for remaining at 24 h, 100 µM: pH 7.4, % Intact Peptide in Plasma after 24 h; for remaining at 48 h, 100 µM: pH 7.4, % Intact Peptide in Plasma after 48 h
Procedure: The concentration of the peptides in plasma/PBS (1:2 v/v) was 80 and 4 μM (recovery determination) or 100 μM (stability tests). Data analysis was based on UV detection at 220 nm (8, 9, 11, 12, 14-18, 21-23, 38-49, and 54-57) or fluorescence detection at 275/305 nm (19 and 20). Reference samples, representing 100% recovery, were prepared in duplicate (8, 9, 11, 14-16, and 19-21) or quadruplicate (12, 17, 18, 22, 23, 38-49, and 54-57). Recovery ratios were obtained by dividing the recovery of the peptide by the recovery of IS for each individual sample (n = 3-5). The obtained recoveries and the recovery ratios are summarized in Table S2, Supplementary Materials. […] Instead, the recovery ratios determined for the previously reported, structurally closely related peptide […] [40] were used for calculating the amount of remaining intact peptide in plasma.

[4] = [3H]UR-MK300 c = 1 nM, HT-29 cells, 23 °C, read-out: Ki [nM] NTS1R (converted)
[5] = [3H]UR-MK300 c = 1 nM, HT-29 cells, 23 °C, read-out: pKi ± SD NTS1R (converted)
[6] = read-out: Ki [nM] NTS2R (converted)
[7] = read-out: pKi ± SD NTS2R (converted)

SMILES | NTS1R Selectivity (Ratio Ki (NTS2R)/Ki (NTS1R)) [1] | Ki [1, 4] | Ki [1, 5] | Ki [2, 6] | Ki [2, 7] | % Intact Peptide in Plasma after 24 h ([3]; 24 h, 100 µM, pH 7.4) | % Intact Peptide in Plasma after 48 h ([3]; 48 h, 100 µM, pH 7.4) | remaining at 1 h, 100 µM [3] | remaining at 6 h, 100 µM [3] | remaining at 24 h, 100 µM [3] | remaining at 48 h, 100 µM [3] | lower NTS1R affinity compared to 56 ([1]; 57 versus 56) | pKi ± SD NTS1R ([1]; [3H]UR-MK300 c = 1 nM, HT-29 cells, 23 °C)
CN[C@@H](CCCNC(N)=NC(=O)NCCCCNC(=O)CN1CCN(CC(=O)O)CCN(CC(=O)O)CCN(CC(=O)O)CC1)C(=O)N[C@@H](CCCNC(=N)N)C(=O)N1CCC[C@H]1C(=O)N[C@@H](Cc1ccc(O)cc1)C(=O)N[C@H](C(=O)N[C@@H](CC(C)C)C(=O)O)C(C)(C)C [Compound 16] | 4.5 | 33 nM | 33.1 nM | 150 nM | 138 nM | 93 ± 3% | 84 ± 2% |  |  |  |  |  | 
CN[C@@H](CCCNC(N)=NC(=O)NCCCCN)C(=O)N[C@@H](CCCNC(=N)N)C(=O)N1CCC[C@H]1C(=O)N[C@H](C(=O)N[C@H](C(=O)N[C@@H](CC(C)C)C(=O)O)C(C)(C)C)C(C)(C)c1ccc(O)cc1 [Compound 52] | 1.2 | 5.4 nM | 5.01 nM | 6.5 nM | 6.03 nM |  |  |  |  |  |  |  | 
CN[C@@H](CCCNC(=N)N)C(=O)N[C@@H](CCCNC(=N)N)C(=O)N1CCC[C@H]1C(=O)N[C@@H](Cc1ccc(O)cc1)C(=O)N[C@@H](CC1CC1)C(=O)N[C@@H](CC(C)C)C(=O)O [Compound 41] |  | 5 nM |  |  |  |  |  | 92 ± 1% | 74 ± 1% | 15 ± 1% | < 1% |  | 
CN[C@@H](CCCNC(N)=NC(=O)NCCCCNC(=O)CN1CCN(CC(=O)O)CCN(CC(=O)O)CCN(CC(=O)O)CC1)C(=O)N[C@@H](CCCNC(=N)N)C(=O)N1CCC[C@H]1C(=O)N[C@H](C(=O)N[C@H](C(=O)N[C@@H](CC(C)C)C(=O)O)C(C)(C)C)C(C)(C)c1ccc(O)cc1 [Compound 57] |  | 21 nM |  |  |  |  |  | > 99% | > 99% | 68 ± 1% | < 1% | 18 fold | 7.67 ± 0.04
CC(C)C[C@H](NC(=O)[C@@H](NC(=O)[C@H](Cc1ccc(O)cc1)NC(=O)[C@@H]1CCCN1C(=O)[C@H](CCCNC(=N)NC(=O)NCCCCN)N(C)C(=O)[C@@H](N)CCCNC(=N)N)C(C)(C)C)C(=O)O [Compound 11] | 2.1 | 13 nM |  | 27 nM |  |  |  | > 99% | > 99% | > 99% | > 99% |  | 
CC[C@H](C)[C@H](NC(=O)[C@H](Cc1ccc(O)cc1)NC(=O)[C@@H]1CCCN1C(=O)[C@H](CCCNC(=N)N)NC(=O)[C@H](CCCNC(=N)N)NC)C(=O)N[C@@H](CC1CC1)C(=O)O [Compound 46] |  | 2.6 nM | 2.34 nM |  |  |  |  | 25 ± 2% | < 1% | < 1% | < 1% |  | 
CN[C@@H](CCCNC(=N)N)C(=O)N[C@@H](CCCNC(=N)NC(=O)NCCCCNC(=O)CN1CCN(CC(=O)O)CCN(CC(=O)O)CCN(CC(=O)O)CC1)C(=O)N1CCC[C@H]1C(=O)N[C@@H](Cc1ccc(O)cc1)C(=O)N[C@H](C(=O)N[C@@H](CC(C)C)C(=O)O)C(C)(C)C [Compound 14] | 2.8 | 28 nM | 21.9 nM | 79 nM |  |  |  |  |  |  |  |  | 
CN[C@@H](CCCNC(=N)N)C(=O)N[C@@H](CCCNC(=N)N)C(=O)N1CCC[C@H]1C(=O)N[C@@H](Cc1ccc(O)cc1)C(=O)N[C@H](C(=O)N[C@@H](CC(C)C)C(=O)O)C1CCCC1 [Compound 43] |  | 1.2 nM |  |  |  |  |  | 99 ± 1% | 95 ± 1% | 78 ± 1% | 58 ± 1% |  | 
CN[C@@H](CCCNC(=N)NC(=O)NCCOCCOCCN)C(=O)N[C@@H](CCCNC(=N)N)C(=O)N1CCC[C@H]1C(=O)N[C@@H](Cc1ccc(O)cc1)C(=O)N[C@H](C(=O)N[C@@H](CC(C)C)C(=O)O)C(C)(C)C [Compound 12] |  | 2.7 nM | 2.45 nM |  |  |  |  | 97 ± 3% | 97 ± 3% | 94 ± 3% | 91 ± 3% |  | 
CN[C@@H](CCCNC(=N)N)C(=O)N[C@@H](CCCNC(=N)N)C(=O)N1CCC[C@H]1C(=O)N[C@@H](Cc1ccc(O)cc1)C(=O)N[C@H](C(=O)N[C@@H](CC(C)C)C(=O)O)C1CCC1 [Compound 42] |  | 1.1 nM | 1.05 nM |  |  |  |  | 91 ± 1% | 79 ± 1% | 32 ± 1% | < 1% |  | 
CC[C@@H](C)[C@H](NC(=O)[C@H](Cc1ccc(O)cc1)NC(=O)[C@@H]1CCCN1C(=O)[C@H](CCCNC(=N)N)NC(=O)[C@H](CCCNC(=N)N)NC)C(=O)N[C@@H](CC(C)C)C(=O)O [Compound 38] |  | 4.8 nM | 4.68 nM |  |  |  |  | 92 ± 1% | 87 ± 1% | 70 ± 1% | 52 ± 1% |  | 
CN[C@@H](CCCNC(=N)N)C(=O)N[C@@H](CCCNC(=N)N)C(=O)N1CCC[C@H]1C(=O)N[C@@H](Cc1ccc(O)cc1)C(=O)N[C@H](C(=O)N[C@@H](CC(C)C)C(=O)O)C1CC1 [Compound 40] |  | 9.6 nM | 8.91 nM |  |  |  |  | 88 ± 1% | 58 ± 1% | < 1% | < 1% |  | 
CN[C@@H](CCCNC(N)=NC(=O)NCCCCN)C(=O)N[C@@H](CCCNC(=N)N)C(=O)N1CCC[C@H]1C(=O)N[C@@H](C(=O)N[C@H](C(=O)N[C@@H](CC(C)C)C(=O)O)C(C)(C)C)C(C)(C)c1ccc(O)cc1 [Compound 53] |  |  |  | 450 nM | 398 nM |  |  |  |  |  |  |  | 
CCC(CC)(NC(=O)[C@H](Cc1ccc(O)cc1)NC(=O)[C@@H]1CCCN1C(=O)[C@H](CCCNC(=N)N)NC(=O)[C@H](CCCNC(=N)N)NC)C(=O)N[C@@H](CC(C)C)C(=O)O [Compound 39] |  | > 1000 nM | > 1000 nM |  |  |  |  | 93 ± 1% | 94 ± 1% | 93 ± 1% | 93 ± 1% |  | 
